Peptide text beside a SMILES is read from it. * marks the point of attachment. X1 = CC(=O)O[C@H]1C(=O)[C@@]2(C)[C@H]([C@H](OC(=O)c3ccccc3)[C@]3(O)C[C@H](OC(=O)[C@H](OC(=O)COCC(=O)OCCCCCCn4cc(CCCC(=O)*)nn4)[C@@H](NC(=O)c4ccccc4)c4ccccc4)C(C)=C1C3(C)C)[C@]1(OC(C)=O)CO[C@@H]1C[C@@H]2O
What was measured:
[1] = target: EphA2 Fc (Homo sapiens, UniProt P29317); test: ELISA displacement of ephrin-A5 AP from immobilized EphA2 Fc; details: ephrin-A5 AP binding to EphA2 Fc
[2] = target: T1, EphA2 (Homo sapiens, UniProt P29317); test: Quantum dot internalization into lysosomes; details: PC3 prostate cancer cells (highly EphA2 expressing), 100 μM
[3] = target: T1, EphA2; test: EphA2 internalization into lysosomes, confocal imaging; assay type: cell-based; details: PC3 cells, 2 h, 100 μM conjugate or 0.2 μg/mL ephrin-A1 Fc
[4] = tested on: PC3 cells; test: ATP-Lite analysis of cell viability; assay type: cell-based, human; details: 72 hours, 10 nM, EphA2 overexpressing PC3
[5] = Bio-distribution: PTX levels in tumor and plasma by LC-MS/MS; assay type: in vivo, mice
[6] = Microsomal stability; assay type: in vitro ADME; details: rat, liver microsomes, pH 7.2
[7] = tested on: PC3 tumor xenografts; details: intravenous, twice weekly for 3 weeks
[8] = Plasma stability; assay type: in vitro ADME; details: rat, plasma (fresh)
[9] = tested on: PC3 cells; test: Release of native paclitaxel in the presence of PC3 cells; assay type: cell-based, human; details: in the presence of PC3 cells (data not shown)

T1 sequence (P29317 24-976): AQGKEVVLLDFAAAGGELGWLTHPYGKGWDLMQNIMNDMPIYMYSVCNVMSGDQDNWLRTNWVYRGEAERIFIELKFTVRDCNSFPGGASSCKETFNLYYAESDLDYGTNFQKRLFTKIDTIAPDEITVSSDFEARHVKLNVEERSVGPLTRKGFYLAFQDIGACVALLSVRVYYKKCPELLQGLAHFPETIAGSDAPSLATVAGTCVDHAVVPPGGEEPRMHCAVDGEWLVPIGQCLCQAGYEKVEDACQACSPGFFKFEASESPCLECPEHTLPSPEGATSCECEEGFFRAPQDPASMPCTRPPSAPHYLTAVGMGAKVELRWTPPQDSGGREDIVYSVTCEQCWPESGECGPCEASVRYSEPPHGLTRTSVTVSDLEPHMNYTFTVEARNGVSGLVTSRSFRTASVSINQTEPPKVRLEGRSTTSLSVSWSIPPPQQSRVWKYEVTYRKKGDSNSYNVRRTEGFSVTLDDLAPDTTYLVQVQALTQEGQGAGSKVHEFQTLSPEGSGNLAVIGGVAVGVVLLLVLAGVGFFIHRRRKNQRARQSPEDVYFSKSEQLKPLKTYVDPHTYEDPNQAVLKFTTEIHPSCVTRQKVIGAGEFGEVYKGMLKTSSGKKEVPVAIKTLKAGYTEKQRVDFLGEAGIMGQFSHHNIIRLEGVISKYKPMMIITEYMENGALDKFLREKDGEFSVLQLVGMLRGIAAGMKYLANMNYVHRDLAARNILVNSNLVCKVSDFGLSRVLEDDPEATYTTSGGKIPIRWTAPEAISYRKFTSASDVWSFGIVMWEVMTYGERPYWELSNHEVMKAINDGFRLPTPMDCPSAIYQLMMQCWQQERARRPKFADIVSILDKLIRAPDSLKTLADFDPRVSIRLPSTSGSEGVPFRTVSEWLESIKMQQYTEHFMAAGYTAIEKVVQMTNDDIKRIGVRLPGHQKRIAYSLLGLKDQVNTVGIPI
Chain of EphA2 Fc (P29317 24-537 limits assumed): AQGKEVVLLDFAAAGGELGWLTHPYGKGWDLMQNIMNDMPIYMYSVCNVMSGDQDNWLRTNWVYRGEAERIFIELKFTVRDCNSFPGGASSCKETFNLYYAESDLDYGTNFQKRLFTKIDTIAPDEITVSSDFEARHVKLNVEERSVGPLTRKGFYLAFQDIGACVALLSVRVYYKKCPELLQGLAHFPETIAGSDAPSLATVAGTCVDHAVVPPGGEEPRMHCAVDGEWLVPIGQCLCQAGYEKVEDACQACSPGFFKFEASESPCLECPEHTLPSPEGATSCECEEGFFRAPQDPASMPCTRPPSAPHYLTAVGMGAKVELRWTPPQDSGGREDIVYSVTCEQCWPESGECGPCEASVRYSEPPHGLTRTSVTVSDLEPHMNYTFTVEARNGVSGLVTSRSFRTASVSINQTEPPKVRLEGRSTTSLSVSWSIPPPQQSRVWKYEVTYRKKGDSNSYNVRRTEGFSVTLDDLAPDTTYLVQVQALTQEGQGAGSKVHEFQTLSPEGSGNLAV

Compound | displacement of ephrin-A5 [1] | Qdot uptake / targeting of cells [2] | EphA2 internalization into lysosomes [3] | cell death / viability of PC3 cells [4] | concentration at 30 min ([5]; SCID-beige, mouse, plasma, intravenous, 25 mg/kg) | Plasma levels of PTX ([5]; 30 min after single equimolar intravenous dose (PTX 25 mg/kg)) | half-life at 4 μM [6] | signs of toxicity [7] | mouse body weights ([7]; versus vehicle control) | half-life at 1 μM [8] | time to nearly complete release of native paclitaxel [9]
CSCC[C@H](NC(=O)[C@H](C)NC(=O)[C@H](CCSC)NC(=O)[C@H](CO)NC(=O)[C@@H]1CCCN1C(=O)[C@H](Cc1ccc(O)cc1)NC(=O)[C@@H](N)CC(=O)O)C(=O)N[C@@H](Cc1ccc(O)cc1)C(=O)N[C@@H](CO)C(=O)N1CCC[C@H]1C(=O)N[C@@H](CO)C(=O)N[C@H](C(=O)N[C@@H](CCCCNC(=O)CCCc1cn(CCCCCCOC(=O)COCC(=O)O[C@@H](C(=O)O[C@H]2C[C@@]3(O)[C@@H](OC(=O)c4ccccc4)[C@@H]4[C@]5(OC(C)=O)CO[C@@H]5C[C@H](O)[C@@]4(C)C(=O)[C@H](OC(C)=O)C(=C2C)C3(C)C)[C@@H](NC(=O)c2ccccc2)c2ccccc2)nn1)C(=O)O)C(C)C [DYP-PTX, DYPSMAMYSPSV- K*-PTX] (H-DYPSMAMYSPSVK(X1)-OH; N-terminus and C-terminus assumed) | neither of the control compounds, DYP motif nor DYP-PTX conjugate, show any detectable displacement of ephrin-A5 | does not target PC3 cells | does not trigger EphA2 internalization | no significant cell killing |  |  |  |  |  |  | 
CC(=O)O[C@H]1C(=O)[C@@]2(C)[C@H]([C@H](OC(=O)c3ccccc3)[C@]3(O)C[C@H](OC(=O)[C@H](O)[C@@H](NC(=O)c4ccccc4)c4ccccc4)C(C)=C1C3(C)C)[C@]1(OC(C)=O)CO[C@@H]1C[C@@H]2O [PTX, paclitaxel, reference compound] |  |  |  |  | 771 ± 585 ng/mL |  |  |  |  |  | 
CSCC[C@H](NC(=O)[C@H](CCSC)NC(=O)[C@@H]1CCCN1C(=O)[C@@H](NC(=O)[C@H](CO)NC(=O)[C@H](CC(=O)O)NC(=O)[C@@H]1CCCN1C(=O)[C@H](Cc1ccc(O)cc1)NC(=O)[C@H](C)NC(=O)[C@H](CO)NC(=O)[C@@H](N)Cc1ccc(O)cc1)C(C)C)C(=O)N[C@@H](CO)C(=O)N[C@@H](CCCCNC(=O)CCCc1cn(CCCCCCOC(=O)COCC(=O)O[C@@H](C(=O)O[C@H]2C[C@@]3(O)[C@@H](OC(=O)c4ccccc4)[C@@H]4[C@]5(OC(C)=O)CO[C@@H]5C[C@H](O)[C@@]4(C)C(=O)[C@H](OC(C)=O)C(=C2C)C3(C)C)[C@@H](NC(=O)c2ccccc2)c2ccccc2)nn1)C(=O)O [YSA-PTX] |  |  |  | retained the ability of paclitaxel to induce cell death at low nanomolar concentrations |  | 998 ± 742 ng/mL | 23 min | no adverse signs of toxicity | not affected | 43 min | about 60 minutes

— article PMC3299084 (Journal of Medicinal Chemistry, 2012)
